Assay results published in paper PMC9749988 (PLOS ONE, 2022).
Read-outs that look alike come from different tables or passages of the source.

Columns and labels:
VEGFA = VEGFA protein levels by ELISA after chronic caffeine treatment; type: in vivo, mouse; details: for VEGFA protein levels: caffeine 0.3mg/ml in drinking water from 11 weeks, mean ± SEM
Procedure: (§1) Cortex and spinal cord samples were homogenized in […] (RIPA) lysis buffer (1M Tris pH 8.0, 0.5M EDTA pH 8.0, 5M NaCl, 10% NP-40, 50% Glycerol), supplemented with cOmpleteTM Mini protease inhibitor cocktail tablets (Roche, Penzberg, Germany) and centrifuged. Protein quantification was performed using the DC™ Protein Assay kit (Bio-Rad Laboratories, Hercules, CA, USA). VEGFA, VEGFR-1 and VEGFR-2 protein levels were quantified with the DuoSet® ELISA Development System Kit (R&D Systems, Abingdon, UK), according to manufacturer instructions. Assessment of VEGFB protein levels was performed with the Mouse VEGFB ELISA Kit (Thermo Scientific, Massachusetts, USA), also according to manufacturer instructions. […] To improve BDNF detection, samples were acidified with HCl 1M, until reaching approximately pH 2.6. After 10 to 20 minutes, NaOH was added to neutralize the samples to pH 7.6. Absorbances were read in a microplate reader (Microplate Reader TECAN Infinite M200, Männedorf, Switzerland) at 450nm and 540nm, with the latter being subtracted to the former with the goal of correcting for differences in plate background. Results are expressed as picograms per milligram of total protein (pg/mg).
(§2) During the experimental period, animals had ad libitum access to water, independently of treatment group. […] After 5–7 weeks of treatment, mice were sacrificed, cortex and spinal cord samples were removed and snap frozen in liquid nitrogen. All samples were kept at -80°C for posterior analysis.

[1] = Changes in animal body weight during chronic caffeine treatment (AUC of weight change); type: in vivo, mouse; details: for Area under the curve (AUC) of change in body weight: caffeine 0.3mg/ml in drinking water from 11th to 16-18th week of age, weight change vs first day of administration (PND 72), mean ± SEM; for Weight gain compared to vehicle treatment: caffeine 0.3mg/ml in drinking water
Procedure: as §2
Animal body weight was monitored throughout the chronic drug administration experiments, with animals being weighed once every 2 to 3 days. We used weight changes a proxy of the disease state, as it was described that SOD1^G93A mice show a gradual loss of weight through time, and that these correlate with other disease states indicators. We decided not to use behavioral data (eg RotaRod performance) to avoid changes in protein levels or expression due to physical exercise, which would have even more impact in SOD1^G93A mice than in WT, thus introducing an additional variable and therefore making comparisons more difficult.
Because SOD1^G93A tend to generally weight less than their WT counterparts, group comparisons of absolute weight were deemed inadequate. As such, changes in the body weight of each animal were calculated by subtracting the weight of that animal on the first day of drug administration (72nd day of life) to its weight at each subsequent time-point, with results being expressed in grams. To facilitate comparison of treatment effects, the area under the curve (AUC) of these changes in weight was obtained.

SOD1^G93A mice [2] = details: caffeine 0.3mg/ml in drinking water from 11th week of age
VEGFR-2 = VEGFR-2 protein levels by ELISA after chronic caffeine treatment; type: in vivo, mouse; details: caffeine 0.3mg/ml in drinking water from 11 weeks, mean ± SEM
Procedure: as §1
After 5–7 weeks of treatment, mice were sacrificed, cortex and spinal cord samples were removed and snap frozen in liquid nitrogen. All samples were kept at -80°C for posterior analysis.

[3] = Water intake during chronic caffeine treatment; type: in vivo; details: WT and SOD1^G93A mice; tap water or caffeine (0.3mg/ml); approximately 5–6 mL per day per mouse
Procedure: as §2

VEGFB = VEGFB protein levels by ELISA after chronic caffeine treatment; type: in vivo, mouse; details: caffeine 0.3mg/ml in drinking water from 11 weeks, mean ± SEM
Procedure: as §1, §2

VEGFR-1 = VEGFR-1 protein levels by ELISA after chronic caffeine treatment; type: in vivo, mouse; details: caffeine 0.3mg/ml in drinking water from 11 weeks, mean ± SEM
Procedure: as §1, §2

BDNF = BDNF protein levels by ELISA after chronic caffeine treatment; type: in vivo, mouse; details: caffeine 0.3mg/ml in drinking water from 11 weeks, mean ± SEM
Procedure: as §1, §2

SOD1^G93A mice [4] = details: cited from earlier work
A1R = target: T1, A1R (Mus musculus, UniProt Q60612); type: binding; details: mean ± SEM, read-out: DPCPX equilibrium dissociation constant (KD)
T1 construct: To obtain the P1 fraction, cerebral cortex and spinal cord were homogenized in chilled sucrose; from tissue; host or cells: cerebral cortex and spinal cord membranes (P1 fraction) of SOD1-G93A transgenic and WT B6SJL mice
T1 sequence (Q60612 1-326): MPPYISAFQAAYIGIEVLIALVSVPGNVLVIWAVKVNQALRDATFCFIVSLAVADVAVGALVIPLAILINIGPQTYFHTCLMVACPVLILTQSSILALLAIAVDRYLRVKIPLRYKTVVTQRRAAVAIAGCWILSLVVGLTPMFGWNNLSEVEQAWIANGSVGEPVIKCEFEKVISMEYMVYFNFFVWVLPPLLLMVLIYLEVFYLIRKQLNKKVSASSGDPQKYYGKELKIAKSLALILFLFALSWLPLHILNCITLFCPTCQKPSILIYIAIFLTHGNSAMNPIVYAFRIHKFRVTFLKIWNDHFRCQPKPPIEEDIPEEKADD
Procedure: The radioligand-binding experiments were performed as previously described with membrane fractions (total membranes, P1 fraction). To obtain the P1 fraction, cerebral cortex and spinal cord were homogenized in chilled sucrose (pH 7.6), centrifuged at 3000 g, the pellet discarded, and the supernatant centrifuged at 14000 g (P1 fraction). The P1 fraction was then resuspended in sucrose (pH 7.6). Protein quantification was done with DC™ Protein Assay kit (Bio-Rad Laboratories, CA, USA), with bovine serum albumin (BSA) as the reference standard. […] Non-specific binding was measured in the presence of 2 μM of Xanthine Amine Congener (XAC, Tocris Bioscience, Bristol, United Kingdom), and the resulting values were subtracted from those obtained with [^3H]DPCPX to determine the specific binding and normalized for protein concentration. Results are expressed as femtomole per mg of total protein (fmol/mg).

## Cn1c(=O)c2c(ncn2C)n(C)c1=O [caffeine]
VEGFA; cortex, WT and SOD1^G93A mice 16–18 weeks old, caffeine 0.3mg/ml in drinking water
  Effect of caffeine upon VEGFA protein levels: absence of effect
VEGFA; cortex, WT mice 16–18 weeks old, WT-VEH 3.62
  VEGFA protein levels: 2.05 ± 0.324 pg/mg protein
VEGFA; spinal cord, SOD1^G93A mice 16–18 weeks old, SOD-VEH 4.151 ± 0.820
  VEGFA protein levels: 3.743 ± 1.018 pg/mg protein
VEGFA; spinal cord, WT mice 16–18 weeks old, WT-VEH 2.798
  VEGFA protein levels: 3.774 ± 0.451 pg/mg protein
[1]; SOD1^G93A mice, SOD-VEH 12.90 ± 3.033
  Area under the curve (AUC) of change in body weight: 22.70 ±3.795
[1]; SOD1^G93A mice, not statistically significant (p = 0.058)
  Weight gain compared to vehicle treatment: trend towards an increase in weight gain
[1]; WT mice, WT-VEH 71.20 ± 2.011
  Area under the curve (AUC) of change in body weight: 83.40 ± 4.743
[1]; WT mice, p = 0.039
  Weight gain compared to vehicle treatment: small but statistically significant increase in weight gain
SOD1^G93A mice [2]
  Symptoms on visual inspection: trend to symptoms aggravation
  Time to humane endpoint (onset of hindlimb paresis) vs vehicle treated SOD1^G93A mice: slightly earlier
VEGFR-2; cortex, SOD1^G93A mice 16–18 weeks old, SOD-VEH 45.41 ± 5.938
  VEGFR-2 protein levels: 50.51 ± 6.925 pg/mg protein
VEGFR-2; cortex, WT mice 16–18 weeks old, WT-VEH 45.14 ± 4.019
  VEGFR-2 protein levels: 39.02 ± 4.077 pg/mg protein
VEGFR-2; spinal cord, WT mice 16–18 weeks old, WT-VEH 108 ± 32.5
  VEGFR-2 protein levels: 121 ± 40.6 pg/mg protein
[3]
  Water intake, difference between treatment groups: No substantial differences
VEGFB; cortex, SOD1^G93A mice 16–18 weeks old, SOD-VEH 164.7 ± 10.79
  VEGFB protein levels: 157.8 ± 13.94 pg/mg protein
VEGFB; cortex, WT mice 16–18 weeks old, WT-VEH 166.8 ± 20.91
  VEGFB protein levels: 170.7 ± 33.07 pg/mg protein
VEGFB; spinal cord, SOD1^G93A mice 16–18 weeks old, SOD-VEH 545.6 ± 35.13
  VEGFB protein levels: 545.3 ± 55.72 pg/mg protein
VEGFB; spinal cord, WT mice 16–18 weeks old, WT-VEH 366.0 ± 64.68
  VEGFB protein levels: 366.5 ± 90.97 pg/mg protein
VEGFR-1; cortex, SOD1^G93A mice 16–18 weeks old, SOD-VEH 905.1 ± 30.64
  VEGFR-1 protein levels: 926.5 ± 89.92 pg/mg protein
VEGFR-1; cortex, WT mice 16–18 weeks old, WT-VEH 1078 ± 90.79
  VEGFR-1 protein levels: 1004 ± 146.9 pg/mg protein
VEGFR-1; spinal cord, SOD1^G93A mice 16–18 weeks old, SOD-VEH 919.3 ± 50.34
  VEGFR-1 protein levels: 1048 ± 115.2 pg/mg protein
BDNF; cortex, SOD1^G93A mice 16–18 weeks old, SOD-VEH 29.75 ± 4.560, p = 0.042
  BDNF protein levels: 13.85 ± 2.372 pg/mg protein
BDNF; cortex, WT mice 16–18 weeks old, WT vehicle 20.96 ± 1.403, p = 0.020
  BDNF protein levels: 40.24 ± 6.342 pg/mg protein
BDNF; spinal cord, SOD1^G93A mice 16–18 weeks old, SOD-VEH 19.34, p = 0.038, high variability
  BDNF protein levels: 49.10 ± 10.82 pg/mg protein
BDNF; spinal cord, WT mice 16–18 weeks old
  BDNF protein levels: 14.37 ± 4.488 pg/mg protein
SOD1^G93A mice [4]
  Effect on ALS symptoms: exacerbates ALS symptoms

## CCCn1c(=O)c2[nH]c(C3CCCC3)nc2n(CCC)c1=O [DPCPX, [^3H]-8-Cyclopentyl-1,3-dipropylxanyine]
A1R; cortex, WT mice age-matched to pre-symptomatic (4–6 weeks old)
  Kd: 3.1 ± 1.55 nM
A1R; cortex, WT mice age-matched to symptomatic (12–14 weeks old)
  Kd: 7.98 ± 1.01 nM
A1R; cortex, pre-symptomatic SOD1^G93A mice (4–6 weeks old)
  Kd: 4.97 ± 1.07 nM
A1R; cortex, symptomatic SOD1^G93A mice (12–14 weeks old)
  Kd: 4.43 ± 0.821 nM
A1R; spinal cord, WT mice age-matched to pre-symptomatic (4–6 weeks old)
  Kd: 15 ± 3.83 nM
A1R; spinal cord, WT mice age-matched to symptomatic (12–14 weeks old)
  Kd: 4.32 ± 0.924 nM
A1R; spinal cord, pre-symptomatic SOD1^G93A mice (4–6 weeks old)
  Kd: 12 ± 4.55 nM
A1R; spinal cord, symptomatic SOD1^G93A mice (12–14 weeks old)
  Kd: 11.1 ± 3.47 nM
